From patent publication EP3981864A1, “DETERGENT COMPOSITION” (priority 2020, dated 2022) come the findings set out here.

For this assay, the target named is T1, Arabidopsis thaliana αDOX (SEQ ID NO: 3), fatty acid alpha-dioxygenase, Q9SGH6, variant with N-terminal His-tag, MBP tag and TEV site SEQ ID NO: 253 (Arabidopsis thaliana, UniProt Q9SGH6).
T1 construct: His-tag (N); MBP tag (N); TEV protease cleavage site (N); made in house; host or cells: Escherichia coli BL21 (DE3), modified pET28a
T1 sequence (Q9SGH6 1-639): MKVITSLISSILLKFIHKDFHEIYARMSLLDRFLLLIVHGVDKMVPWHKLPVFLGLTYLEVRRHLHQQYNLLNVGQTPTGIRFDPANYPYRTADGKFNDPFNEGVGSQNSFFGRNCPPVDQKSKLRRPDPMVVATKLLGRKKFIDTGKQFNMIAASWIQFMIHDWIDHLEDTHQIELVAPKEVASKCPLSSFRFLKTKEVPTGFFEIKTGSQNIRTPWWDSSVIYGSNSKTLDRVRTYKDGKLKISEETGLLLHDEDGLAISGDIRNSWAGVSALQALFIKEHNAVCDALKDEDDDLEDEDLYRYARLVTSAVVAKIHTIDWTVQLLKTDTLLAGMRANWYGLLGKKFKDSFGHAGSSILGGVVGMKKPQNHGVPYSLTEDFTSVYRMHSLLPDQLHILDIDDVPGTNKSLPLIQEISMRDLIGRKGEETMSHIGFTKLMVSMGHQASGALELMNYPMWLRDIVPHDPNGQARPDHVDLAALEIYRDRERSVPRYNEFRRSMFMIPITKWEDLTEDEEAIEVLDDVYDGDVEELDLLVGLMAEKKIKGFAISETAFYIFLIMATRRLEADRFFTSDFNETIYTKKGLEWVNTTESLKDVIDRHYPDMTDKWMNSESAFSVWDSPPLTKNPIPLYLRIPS
Put plainly: Alpha-dioxygenase activity assay (oxygen consumption, TON). Conditions: fatty acid 100 µM, enzyme 6 ppm, 50 mM HEPES pH 9.0, 37°C; initial rate of oxygen consumption / enzyme concentration. It is filed as biochemical. From the text:
Arabidopsis thaliana αDOX (SEQ ID NO: 3) is a fatty acid alpha-dioxygenase that converts fatty acids into the corresponding 2-hydroperoxy fatty acids and is included as an example of the present invention. A codon optimized gene (SEQ ID NO: 252) encoding for an alpha-dioxygenase variant was designed and synthesized by Genscript. After synthesis, the gene was cloned into a modified version of pET28a, such as the final plasmid encoded for a αDOX variant including an N-terminal amino acid sequence containing a His-tag, an MBP tag, and a TEV protease cleavage site (SEQ ID NO: 253). For heterologous expression, Escherichia coli BL21 (DE3) cells were transformed with the recombinant plasmid and a single colony was inoculated into LB medium containing kanamycin (50 mg/L). A pre-starter culture was then inoculated into flasks containing TB Media supplemented with kanamycin (50 mg/L) and incubated at 37 °C. At an OD600nm about 4, IPTG (final concentration 0.1 mM) and 5-aminolevulinic acid (final concentration 0.5 mM) were added to the culture and further incubated at 16 °C for 16 h. Cells were harvested by centrifugation and the pellet was lysed. After centrifugation, the supernatant was collected, and the protein was purified by one-step purification using Ni-NTA affinity chromatography and standard protocols known in the art. The protein was stored in 1×PBS buffer containing 10% Glycerol and at pH 7.4. The purified enzyme was stored at -80 °C until use.
Reactions with alpha-dioxygenases were performed as follows. An aliquot of fatty acid in ethanol (final concentration 100 µM) was resuspended in buffer (50 mM HEPES at pH 9.0) in a scintillation vial. The reaction was started by addition of enzyme (final concentration 6 ppm). The reaction was incubated for up to 10 minutes at 37°C with 200 rpm agitation and the conversion was monitored using an oxygen sensor. The TON (in s-1) were calculated as the ratio between the initial rate of oxygen consumption (in µM/s) and the concentration of enzyme (in µM). […]

Each structure is given as a SMILES string.

`CCCCCCCC/C=C\CCCCCCCC(=O)O` [Oleic Acid]: the “Oleic Acid, TON” value came out at 0.14 s⁻¹.
As for `CCCCCCCCCCCCCCCC(=O)O` [Palmitic Acid], the “Palmitic Acid, TON” value is 1.01 s⁻¹.
For the molecule `CCCCCCCCCCCCCCCCCC(=O)O` [Stearic Acid], the “Stearic Acid, TON” value is 0.47 s⁻¹.
